Source: ChEMBL document CHEMBL1139813, “Synthesis and biological evaluation of amino-pyridines as androgen receptor antagonists for stimulating hair growth and reducing sebum production” (Bioorg Med Chem Lett, 2007)
Activity calls are given as the source filed them. The calls are words filed in the database; no cut-off is given here.

Experiments:
[1] = biological target: T1, Androgen receptor (Homo sapiens, UniProt P10275)
T1 sequence (P10275 whole entry): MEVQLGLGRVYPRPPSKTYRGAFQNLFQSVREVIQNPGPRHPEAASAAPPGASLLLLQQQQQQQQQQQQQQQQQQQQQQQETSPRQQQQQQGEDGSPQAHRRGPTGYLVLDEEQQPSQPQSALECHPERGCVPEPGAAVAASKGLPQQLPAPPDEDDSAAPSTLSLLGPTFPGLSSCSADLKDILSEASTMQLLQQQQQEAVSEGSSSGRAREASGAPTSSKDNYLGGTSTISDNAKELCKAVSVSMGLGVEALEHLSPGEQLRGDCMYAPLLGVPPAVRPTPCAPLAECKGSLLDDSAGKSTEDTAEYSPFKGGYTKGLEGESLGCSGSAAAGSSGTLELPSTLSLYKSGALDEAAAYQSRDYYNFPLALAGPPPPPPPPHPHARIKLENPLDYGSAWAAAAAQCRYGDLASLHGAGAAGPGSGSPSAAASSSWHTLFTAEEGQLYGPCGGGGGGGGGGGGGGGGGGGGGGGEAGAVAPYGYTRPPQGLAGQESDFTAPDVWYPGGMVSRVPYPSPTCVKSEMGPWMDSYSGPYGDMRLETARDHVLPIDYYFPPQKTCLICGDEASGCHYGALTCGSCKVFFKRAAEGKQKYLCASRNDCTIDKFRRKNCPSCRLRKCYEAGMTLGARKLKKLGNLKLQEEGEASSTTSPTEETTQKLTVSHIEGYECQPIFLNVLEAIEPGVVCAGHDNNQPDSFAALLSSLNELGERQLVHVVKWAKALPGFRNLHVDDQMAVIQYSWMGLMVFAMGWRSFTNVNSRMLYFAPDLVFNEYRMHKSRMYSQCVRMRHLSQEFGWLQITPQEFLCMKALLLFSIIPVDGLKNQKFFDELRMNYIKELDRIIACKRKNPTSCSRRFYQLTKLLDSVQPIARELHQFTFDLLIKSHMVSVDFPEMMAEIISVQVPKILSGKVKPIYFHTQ
Description: Antagonist activity at human androgen receptor expressed in MDA-MB-453 cells

[2] = tested on: Mus musculus; assay: Stimulation of hair growth in C3H/HeN mouse at 3% concentration administered for 5 days, bid per week for 4 weeks; format: functional, organism-based
[3] = Clearance in Beagle dog plasma at 0.5 mg/kg, iv; format: ADME, organism-based, Canis lupus familiaris; parameters: dose 0.5 mg/kg, route intravenous
[4] = tested on: Syrian golden hamster; assay: Reduction in sebum production in syrian hamster ear model at 3% concentration administered for 5 days, bid per week for 2 weeks; format: functional, Mesocricetus auratus; parameters: scale not given: the % may be the effect or the level left
[5] = biological target: T1, Androgen receptor; assay: biochemical
Description: Displacement of [3H]dihydrotestosterone from human androgen receptor expressed in Sf9 cells

SMILES	IC50 [1]	Activity [2]	clearance [3]	Activity [4]	IC50 [5]
C[C@H](c1ccccc1)N(C)c1cc(C(F)(F)F)c(C#N)cn1	0.045 µM	Active	40 mL/min/kg	83%	–
CC(c1ccccc1)N(C)c1cc(C(F)(F)F)c(C#N)cn1 (stereo not drawn)	0.229 µM	–	–	–	–
N#Cc1cnc(N2CCCCC2)cc1C(F)(F)F	0.422 µM	–	–	–	0.209 µM
C[C@@H](Nc1cc(C(F)(F)F)c(C#N)cn1)c1ccccc1	–	–	–	–	4.93 µM
CC1(C)C(=O)N(c2ccc(C#N)c(C(F)(F)F)c2)C(=O)N1CCCCO [RU-58841]	–	–	–	92%	–
CCCN(CCC)c1cc(C(F)(F)F)c(C#N)cn1	> 1 µM	–	–	–	0.078 µM
C[C@@H](c1ccccc1)N(C)c1cc(C(F)(F)F)c(C#N)cn1	–	–	–	–	1.7 µM
N#Cc1cnc(N2CCC3CCCCC3C2)cc1C(F)(F)F (stereo not drawn)	0.26 µM	–	–	–	0.169 µM
CCC(C)N(C)c1cc(C(F)(F)F)c(C#N)cn1 (stereo not drawn)	> 1 µM	–	–	–	0.007 µM
CC1CCN(c2cc(C(F)(F)F)c(C#N)cn2)CC1	0.136 µM	–	–	–	0.073 µM
